US20200254059A1, “THERAPEUTIC AGENT OF UREMIA CONTAINING ALARIN AS THE MAIN INGREDIENT” (JU TIDE CO., LTD., priority 2017, published 2020)
“Also recorded” adds a separate entry of the source.

Legend:
Type in all cases: in vivo
[1] = Body weight in cisplatin-induced uremia Sprague-Dawley rat model; details: all test substance-administered groups (10 and 20 μg/head, single IV dose 8 h after cisplatin 5 mg/kg IP); Day 7; versus normal control group
Experimental: Cisplatin-induced uremia was evaluated for the effect of administration of test substance on an improvement of uremia in the Sprague-Dawley rat model. […] Cisplatin was intraperitoneally administered (IP) and test substance was intravenously administered (IV).

Cisplatin-induced uremia [2] = experiment: Blood biochemical test (serum BUN and CRE) in cisplatin-induced uremia Sprague-Dawley rat model
Experimental: (§1) The intravenous administration was done by fixing an animal into a correction frame, and slowly injecting at a rate of within 1 mL/min through the micro vein using a syringe equipped with 26 gauges needle. The intraperitoneal administration was performed by fixing the animal by a transdormal skin fixation method and intraperitoneally injecting using a syringe equipped with 26 gauges needle.
Serum obtained from the centrifugation was tested for blood urea nitrogen (BUN) and […] (CRE) using a blood biochemical analyzer (7180 Hitachi, Japan).

Cisplatin-induced uremia [3] = experiment: Kidney histopathological examination in cisplatin-induced uremia Sprague-Dawley rat model
Experimental: as §1
Finally, animals were inhaled with ether on an necropsy day to anesthetize and euthanize, and kidneys were extracted and fixed in a 10% neutral buffered formalin solution, and the fixed tissues were cut, dehydrated, paraffin embedded and hematoxylin & eosin stained to make a specimens for histopathological examination after these histological treatment. And then, the obtained specimen is subjected to speculum using an optical microscope (Olympus BX53, Japan).

[4] = serum, high dose group (20 μg/1 mL/head, single IV), versus induced control group given excipient

H-Ala-Pro-Ala-His-Arg-Ser-Ser-Thr-Phe-Pro-Lys-Trp-Val-Thr-Lys-Thr-Glu-Arg-Gly-Arg-Gln-Pro-Leu-Arg-Ser-OH-trifluoroacetate salt (H-APAHRSSTFPKWVTKTERGRQPLRS-OH; also: trifluoroacetate salt) [test substance, human-derived alarin, peptide derived from a splice variant of galanin-like peptide (GALP) RNA]
weight level measured on the day of necropsy [1]: no significant difference
improvement of uremia (overall conclusion) (Cisplatin-induced uremia [2]; cisplatin-induced uremia model, conclusion from blood biochemistry and histopathology): have an effect on the improvement of uremia
blood urea nitrogen (BUN) level (Cisplatin-induced uremia [2]; [4]): significantly lower; also recorded: significant difference
creatinine (CRE) level (Cisplatin-induced uremia [2]; [4]): significantly lower; also recorded: significant difference
blood biochemical level (Cisplatin-induced uremia [2]; single dose of 10 μg/1 mL/head and 20 μg/1 mL/head IV, versus control group of excipient): tendency to improve
histopathological examination results, lesion level across doses (Cisplatin-induced uremia [3]; 10 and 20 μg/1 mL/head, single IV dose): dose-related change trend and significant changes in lesion level
level of lesion, histopathological examination of kidney (Cisplatin-induced uremia [3]; high dose group (20 μg/head, single IV), H&E stained kidney, Day 7, versus control group): significantly lower
